In patent US11426448B2, “Methods for treatment of erectile dysfunction with sonic hedgehog compounds” (NORTHWESTERN UNIVERSITY, priority 2018, dated 2022):

Tested on: MPG/CN neurons
Test: MPG/CN organ culture with Affi-Gel beads, quantification of neurites
Format: cell-based, Sprague Dawley rats
Details: uninjured MPG/CN, three days, SHH inhibitors on Affi-Gel beads, vs DMSO or PBS

CC1=C2C[C@H]3[C@@H](CC=C4C[C@@H](O)CC[C@@]43C)[C@@H]2CC[C@]12O[C@@H]1C[C@H](C)CN[C@H]1[C@H]2C [cyclopamine]
neurite formation reduced: 5.6 fold | neurite formation reduced / inhibited: 82%
